{"source": "ChEMBL document CHEMBL4342505", "about": "“Achieving In Vivo Target Depletion through the Discovery and Optimization of Benzimidazolone BCL6 Degraders” (J Med Chem, 2020)", "key": {"OCI-Ly1": {"tested_on": "OCI-Ly1", "assay": "Antiproliferative activity agianst human OCI-LY1 cells assessed as growth inhibition incubated for 14 days by CellTiter Glo reagent based assay"}, "[1]": {"assay": "Kinetic solubility in HEPES buffer containing 5% DMSO at pH 8 incubated for 20 hrs by NMR analysis", "format": "physicochemical", "conditions": "read-out: Kinetic_solubility"}, "[2]": {"assay": "AUC (0 to 10 hrs) in SCID mouse at 5 mg/kg, po measured upto 10 hrs by LC/MS-MS analysis", "format": "ADME, organism-based", "design": "time < 10 hr, dose 5 mg/kg, route oral", "conditions": "in vivo"}, "[3]": {"assay": "Toxicity in SCID mouse xenografted with human OCI-LY1 cells assessed as adverse effect at 15 mg/kg, po observed for 24 hrs", "format": "organism-based", "conditions": "in vivo"}, "[4]": {"assay": "Plasma concentration in SCID mouse", "format": "ADME, cell-free"}, "in vivo [5]": {"assay": "in vivo", "conditions": "SCID, mouse, po, 50 mg/kg"}, "[6]": {"assay": "AUC (0 to 10) hrs in SCID mouse at 50 mg/kg, po measured upto 10 hrs by LC/MS-MS analysis", "format": "ADME, organism-based", "design": "dose 50 mg/kg, time < 10 hr, route oral", "conditions": "in vivo"}, "[7]": {"assay": "Cmax in SCID mouse at 50 mg/kg, po measured upto 24 hrs by LC/MS-MS analysis", "format": "ADME, organism-based", "design": "dose 50 mg/kg, route oral", "conditions": "in vivo"}, "OCI-Ly3": {"tested_on": "OCI-Ly3", "assay": "Antiproliferative activity agianst human OCI-LY3 cells assessed as growth inhibition incubated for 14 days by CellTiter Glo reagent based assay"}, "[8]": {"assay": "Drug level in SCID mouse blood", "format": "ADME, tissue-based", "conditions": "read-out: Ct"}, "[9]": {"assay": "AUC (0 to 10 hrs) in SCID mouse at 15 mg/kg, po measured upto 10 hrs by LC/MS-MS analysis", "format": "ADME, organism-based", "design": "dose 15 mg/kg, time < 10 hr, route oral", "conditions": "in vivo"}, "Mus musculus [10]": {"tested_on": "Mus musculus", "assay": "In vivo inhibition of BCL6 in SCID mouse xenografted with human OCI-LY1 cells assessed as reduction in BCL6 level at 15 mg/kg, po measured at 12 and 16 hrs by Western blot analysis", "format": "functional, organism-based"}, "[11]": {"assay": "Lipophilicity, log D of compound at pH 7.4", "format": "physicochemical", "conditions": "buffer"}, "[12]": {"assay": "Metabolic stability in CD-1 mouse liver microsomes assessed as intrinsic clearance at 1 uM measured upt0 30 mins by LC-MS/MS analysis", "format": "ADME, Microsome", "conditions": "0.5 h"}, "[13]": {"assay": "Cmax in SCID mouse at 5 mg/kg, po measured upto 24 hrs by LC/MS-MS analysis", "format": "ADME, organism-based", "design": "dose 5 mg/kg, route oral", "conditions": "in vivo"}, "SUD4": {"tested_on": "SUD4", "assay": "Antiproliferative activity agianst human SUDHL4 cells assessed as growth inhibition incubated for 14 days by CellTiter Glo reagent based assay", "format": "functional", "conditions": "SU-DHL-4, […]"}, "[14]": {"assay": "Kinetic solubility in PBS buffer containing 1% DMSO at pH 7.4 incubated for 2 hrs by HPLC analysis", "format": "physicochemical", "conditions": "read-out: Kinetic_solubility"}, "[15]": {"assay": "Cmax in SCID mouse at 15 mg/kg, po measured upto 24 hrs by LC/MS-MS analysis", "format": "ADME, organism-based", "design": "dose 15 mg/kg, route oral", "conditions": "in vivo"}, "in vivo [16]": {"assay": "in vivo", "conditions": "SCID, mouse, po, 5 mg/kg"}, "[17]": {"assay": "Protein binding in SCID mouse plasma assessed as unbound fraction", "format": "ADME, cell-free"}, "Mus musculus [18]": {"tested_on": "Mus musculus", "assay": "In vivo inhibition of BCL6 in SCID mouse xenografted with human OCI-LY1 cells assessed as reduction in BCL6 level at 15 mg/kg, po measured upto 10 hrs by Western blot analysis", "format": "functional, organism-based"}, "in vivo [19]": {"assay": "in vivo", "conditions": "SCID, mouse, po, 15 mg/kg"}}, "note": "The source made the active and inactive calls. No cut-off for these calls is given here.", "data": [{"smiles": "C[C@@H]1CN(c2ncc(Cl)c(Nc3ccc4c(c3)n(CCC(C)(C)O)c(=O)n4C)n2)C[C@H](C)C1(F)F", "values": [{"measurement": "GI50", "setting": "OCI-Ly1", "value": 35, "unit": "nM"}, {"measurement": "solubility kinetic at 20 h", "setting": "[1]", "value": 11, "unit": "µM"}, {"measurement": "AUC(0-t) at 10 h", "setting": "[2]", "value": "11.6 to 13.1", "unit": "µM·h"}, {"measurement": "Activity", "setting": "[3]", "value": "Non-Toxic"}, {"measurement": "concentration", "setting": "[4]", "value": 1500, "unit": "nM"}, {"measurement": "Tmax at 24 h", "setting": "in vivo [5]", "value": "2 to 6", "unit": "h"}, {"measurement": "AUC at 10 h", "setting": "[6]", "value": "47.4 to 56.3", "unit": "µM·h"}, {"measurement": "Cmax", "setting": "[7]", "value": "5320 to 6210", "unit": "nM"}, {"measurement": "GI50", "setting": "OCI-Ly3", "value": 1600, "unit": "nM"}, {"measurement": "concentration", "setting": "[8]", "value": 2800, "unit": "nM"}, {"measurement": "AUC(0-t) at 10 h", "setting": "[9]", "value": "48.2 to 49.3", "unit": "µM·h"}, {"measurement": "inhibition", "setting": "Mus musculus [10]", "value": "inactive"}, {"measurement": "logD", "setting": "[11]", "value": 4.3}, {"measurement": "CLH", "setting": "[12]", "value": 78, "unit": "µL/min/mg"}, {"measurement": "Cmax", "setting": "[13]", "value": "1870 to 2040", "unit": "nM"}, {"measurement": "GI50", "setting": "SUD4", "value": 92, "unit": "nM"}, {"measurement": "solubility kinetic at 2 h", "setting": "[14]", "value": 8, "unit": "µM"}, {"measurement": "Cmax", "setting": "[15]", "value": "6680 to 6930", "unit": "nM"}, {"measurement": "Tmax at 24 h", "setting": "in vivo [16]", "value": "0.5 to 1", "unit": "h"}, {"measurement": "fraction unbound", "setting": "[17]", "value": 0.0007}, {"measurement": "inhibition", "setting": "Mus musculus [18]", "value": "Active"}, {"measurement": "Tmax at 24 h", "setting": "in vivo [19]", "value": "0.5 to 2", "unit": "h"}]}]}
